Test results taken from US12509437B2, “Substituted thiophene carboxamides and derivatives thereof as microbicides” (Bayer Aktiengesellschaft, priority 2019, dated 2025).
Values belong to the compound of their own block, whether it stands above or below them.

Experiments:
Peronospora parasitica = test: In vivo preventive test on Peronospora parasitica (Crucifer downy mildew) on cabbage; settings: Hyaloperonospora parasitica, 120 h, sprayed 72 hours before inoculation, evaluated 5 days after inoculation, read-out: efficacy; for pest or weed control at 125 ppm: 125 ppm of active ingredient; for pest or weed control at 500 ppm: 500 ppm of active ingredient; for pest or weed control at 31 ppm: 31 ppm of active ingredient
Method: (§1) The tested active ingredients were prepared by homogenization in a mixture of acetone/Dimethyl sulfoxide/Tween®, and then diluted with water to obtain the desired active material concentration.
(§2) The young plants of cabbage were treated by spraying the active ingredient prepared as described above. Control plants were treated only with an aqueous solution of acetone/Dimethyl sulfoxide/Tween®.
After 72 hours, the plants were contaminated by spraying the leaves with an aqueous suspension of Peronospora parasitica spores. The contaminated cabbage plants were incubated for 5 days at 20° C. and at 100% relative humidity.
The test was evaluated 5 days after the inoculation. 0% means an efficacy which corresponds to that of the control plants while an efficacy of 100% means that no disease was observed.

[1] = system: Xanthomonas campestris pv. campestris; test: In vivo preventive test on Xanthomonas campestris pv. campestris (black rot on cabbage); settings: Xanthomonas campestris, sprayed 72 hours before inoculation, evaluated 8 or 10 days after inoculation, read-out: efficacy; for pest or weed control at 500 ppm: 500 ppm of active ingredient
Method: as §1, §2
After 72 hours, the plants were contaminated by spraying the leaves with an aqueous bacteria suspension of Xanthomonas campestris pv. campestris. The contaminated cabbage plants were incubated for 8 or 10 days at 27° C. at 95% relative humidity.
The test was evaluated 8 or 10 days after the inoculation. 0% means an efficacy which corresponds to that of the control plants while an efficacy of 100% means that no disease was observed.

[2] = system: Colletotrichum lindemuthianum; test: In vivo preventive test on Colletotrichum lindemuthianum (Anthracnose on bean); settings: sprayed 72 hours before inoculation, evaluated 6 days after inoculation
Method: as §1
(§3) The young plants of bean were treated by spraying the active ingredient prepared as described above. Control plants were treated only with an aqueous solution of acetone/Dimethyl sulfoxide/Tween®.
After 72 hours, the plants were contaminated by spraying the leaves with an aqueous suspension of Colletotrichum lindemuthianum spores. The contaminated bean plants were incubated for 24 hours at 20° C. and at 100% relative humidity and then for 5 days at 20° C. and at 90% relative humidity.
The test was evaluated 6 days after the inoculation. 0% means an efficacy which corresponds to that of the control plants while an efficacy of 100% means that no disease was observed.

Uromyces appendiculatus = test: In vivo preventive test on Uromyces appendiculatus (bean rust); settings: 240 h, sprayed 72 hours before inoculation, evaluated 10 days after inoculation, read-out: efficacy; for pest or weed control at 31 ppm: 31 ppm of active ingredient; for pest or weed control at 500 ppm: 500 ppm of active ingredient; for pest or weed control at 125 ppm: 125 ppm of active ingredient
Method: as §1, §3
After 72 hours, the plants were contaminated by spraying the leaves with an aqueous suspension of Uromyces appendiculatus spores. The contaminated bean plants were incubated for 24 hours at 20° C. and at 100% relative humidity and then for 9 days at 20° C. and at 70-80% relative humidity.
The test was evaluated 10 days after the inoculation. 0% means an efficacy which corresponds to that of the control plants while an efficacy of 100% means that no disease was observed.

[3] = system: salicylate responsive promoter sequence of the PR1 (pathogenesis-related protein I) gene (AT2G14610); test: Induction of defense gene expression in Arabidopsis thaliana (PR1 promoter-GFP reporter plants); format: in vivo; settings: 72 h, 3rd day after spraying, mock treated leaves set as 1.00, read-out: relative fluorescence value
Method: Arabidopsis thaliana reporter plants containing the coding sequence of a green fluorescent protein (GFP) linked to the salicylate responsive promoter sequence of the PR1 (pathogenesis-related protein I) gene (AT2G14610) were grown for five days and then sprayed with compounds. On the 3rd day after spraying, plant fluorescence was assessed with a MacroFluo instrument from Leica Microsystems (Wetzlar, Germany). Fluorescences were quantified with the Meta-Morph Microscopy Automation & Image Analysis Software (Molecular Devices, Sunnyvale, Calif., United States). Background fluorescence in mock treated leaves was set as 1.00.

[4] = LogP by HPLC on reversed phase columns (EEC directive 79/831 Annex V.A8); format: physicochemical; settings: for chromatographic logP: reversed phase HPLC columns
Method: [table] If more than one Log P value is available within the same method, all the values are given and separated by “+”. Calibration was done with straight-chain alkan2-ones (with 3 to 16 carbon atoms) with known Log P values (measurement of Log P values using retention times with linear interpolation between successive alkanones). Lambda-max-values were determined using UV-spectra from 200 nm to 400 nm and the peak values of the chromatographic signals.

[5] = Colletotrichum lindemuthianum, 144 h, 500 ppm of active ingredient, read-out: efficacy

SMILES: O=C(NC1(C(=O)O)CC1)c1cc(Cl)c(Cl)s1 [CMP3, reference compound]
pest or weed control at 125 ppm (Peronospora parasitica): 0%
pest or weed control at 500 ppm (Peronospora parasitica): 0%
pest or weed control at 31 ppm ([1]; 31 ppm of active ingredient): < 40%
pest or weed control at 500 ppm [1]: 0%

SMILES: COC(=O)C1(NC(=O)c2cc(Br)c(Br)s2)CC1 [CMP5, reference compound]
pest or weed control at 125 ppm (Peronospora parasitica): < 40%
pest or weed control at 125 ppm ([2]; Colletotrichum lindemuthianum, 144 h, 125 ppm of active ingredient, read-out: efficacy): 0%
pest or weed control at 31 ppm (Uromyces appendiculatus): 0%
pest or weed control at 500 ppm (Uromyces appendiculatus): < 20%

SMILES: CCOC(=O)C1(NC(=O)c2cc(Cl)c(Cl)s2)CC1 [CMP6, reference compound]
pest or weed control at 125 ppm (Peronospora parasitica): 0%
pest or weed control at 500 ppm (Peronospora parasitica): 0%
pest or weed control at 31 ppm ([2]; Colletotrichum lindemuthianum, 144 h, 31 ppm of active ingredient, read-out: efficacy): < 40%

SMILES: CCCOC(=O)C1(NC(=O)c2cc(Br)c(Br)s2)CC1 [CMP7, reference compound]
pest or weed control at 500 ppm (Peronospora parasitica): 0%

SMILES: O=C(NC(C(=O)O)C1CC1)c1sc(Br)c(Br)c1Br (stereo not drawn) [CMP8, reference compound]
pest or weed control at 500 ppm [1]: < 10%

SMILES: O=C(NC(C(=O)O)C1CC1)c1cc(Br)c(Br)s1 (stereo not drawn) [CMP13, reference compound]
pest or weed control at 125 ppm (Peronospora parasitica): 0%

SMILES: COC(=O)C(NC(=O)c1sc(Br)c(Br)c1Br)C1CC1 (stereo not drawn) [CMP14, reference compound]
pest or weed control at 31 ppm (Peronospora parasitica): 0%
pest or weed control at 125 ppm (Peronospora parasitica): 0%

SMILES: CCOC(=O)CN(C)C(=O)c1sc(Br)c(Br)c1Br [CMP15, reference compound]
pest or weed control at 125 ppm (Peronospora parasitica): < 30%
pest or weed control at 500 ppm [2, 5]: < 40%

SMILES: COC(=O)CC[C@H](NC(=O)c1sc(Br)c(Br)c1C)C(=O)OC [CMP16, reference compound]
efficacy ([2]; 500 ppm of active ingredient): 38%

SMILES: CCCOC(=O)C1(NC(=O)c2sc(Br)c(Br)c2C)CCC1 [I.133]
pest or weed control at 31 ppm (Peronospora parasitica): 70 to 79%
pest or weed control at 125 ppm (Peronospora parasitica): 90 to 100%
pest or weed control at 500 ppm (Peronospora parasitica): 90 to 100%
fold induction at 75 ppm [3]: > 2
fold induction at 300 ppm [3]: > 2
chromatographic logP ([4]; method [a]): 4.23
pest or weed control at 31 ppm (Uromyces appendiculatus): 90 to 100%
pest or weed control at 125 ppm (Uromyces appendiculatus): 90 to 100%
pest or weed control at 500 ppm (Uromyces appendiculatus): 90 to 100%

SMILES: CCCSC(=O)C1(NC(=O)c2sc(Br)c(Br)c2C)CC1 [I.134]
pest or weed control at 500 ppm (Peronospora parasitica): 80 to 89%
fold induction at 75 ppm [3]: > 2
fold induction at 300 ppm [3]: > 2
chromatographic logP ([4]; method [a]): 4.26
pest or weed control at 500 ppm (Uromyces appendiculatus): 90 to 100%

SMILES: COC(=O)C(CCC(N)=O)NC(=O)c1sc(Br)c(Br)c1C (stereo not drawn) [I.138]
LogP ([4]; method [a]): 2.13^[a]

SMILES: CCOC(=O)C1(NC(=O)c2sc(Br)c(Br)c2C)CCOCC1 [I.139]
LogP ([4]; method [a]): 3.17^[a]

SMILES: Cc1c(C(=O)NC(C(=O)OCc2ccccc2)C2CC2)sc(Cl)c1Cl (stereo not drawn) [I.140]
LogP ([4]; method [a]): 4.53^[a]

Continued, in another order:

chromatographic logP ([4]; method [a]): 3.4
SMILES: COC(=O)C1(NC(=O)c2sc(Br)c(Br)c2C)CCC1 [I.131]
pest or weed control at 31 ppm (Peronospora parasitica): 80 to 89%
pest or weed control at 125 ppm (Peronospora parasitica): 90 to 100%
pest or weed control at 500 ppm (Peronospora parasitica): 90 to 100%
fold induction at 75 ppm [3]: > 2
fold induction at 300 ppm [3]: > 2
pest or weed control at 500 ppm [2, 5]: 80 to 89%
pest or weed control at 125 ppm (Uromyces appendiculatus): 90 to 100%
pest or weed control at 500 ppm (Uromyces appendiculatus): 90 to 100%

chromatographic logP ([4]; method [a]): 3.81
SMILES: CCOC(=O)C1(NC(=O)c2sc(Br)c(Br)c2C)CCC1 [I.132]
pest or weed control at 31 ppm (Peronospora parasitica): 80 to 89%
pest or weed control at 125 ppm (Peronospora parasitica): 80 to 89%
pest or weed control at 500 ppm (Peronospora parasitica): 90 to 100%
fold induction at 75 ppm [3]: > 2
fold induction at 300 ppm [3]: > 2
pest or weed control at 500 ppm [2, 5]: 70 to 79%
pest or weed control at 31 ppm (Uromyces appendiculatus): 90 to 100%
pest or weed control at 125 ppm (Uromyces appendiculatus): 90 to 100%
pest or weed control at 500 ppm (Uromyces appendiculatus): 90 to 100%

LogP ([4]; method [a]): 4.05^[a]
SMILES: Cc1c(C(=O)NC2(C(=O)OC(C)C)CCC2)sc(Cl)c1Cl [I.141]

LogP ([4]; method [a]): 4.05^[a]
SMILES: COC(=O)C1(NC(=O)c2sc(Cl)c(Cl)c2C)CC(C)(C)C1 [I.142]

LogP ([4]; method [a]): 3.43^[a]
SMILES: COC(=O)C1(NC(=O)c2sc(Cl)c(Cl)c2C)CC(F)(F)C1 [I.143]

LogP ([4]; method [a]): 2.52^[a]
SMILES: COC(=O)C1(NC(=O)c2sc(Cl)c(Cl)c2C)COC1 [I.144]

LogP ([4]; method [a]): 4.48^[a]
SMILES: Cc1c(C(=O)NC2(C(=O)OC(C)(C)C)CC(F)(F)C2)sc(Cl)c1Cl [I.145]

LogP ([4]; method [a]): 3.60^[a]
SMILES: CCOC(=O)C1(NC(=O)c2sc(Cl)c(Cl)c2C)CSC1 [I.146]

LogP ([4]; method [a]: LC-UV, acidic range, 0.1% formic acid in water and acetonitrile as eluent): 2.40^[a]
SMILES: Cc1c(C(=O)NC2CCOC2=O)sc(Cl)c1Cl (stereo not drawn) [I.147]

LogP ([4]; method [a]): 2.53^[a]
SMILES: CCOC(=O)[C@H](CO)NC(=O)c1sc(Cl)c(Cl)c1C [I.148]
